Reference: patent publication US20190225650A1, “PEPTIDOMIMETIC MACROCYCLES AND USE THEREOF IN REGULATING HIF1ALPHA” (AILERON THERAPEUTICS, INC., priority 2013, published 2019)
Bridge positions count the residues as written; N and C are the ends. Square brackets hold non-standard residues; d marks the D form. Peptide text beside a SMILES is read from it. S5 = C=CCCC[C@](C)(N)C(=O)O; Nle = CCCC[C@H](N)C(=O)O; Dap = NC[C@H](N)C(=O)O

Tested on: HRE-bla ME-180 cells
Assay: Reporter gene assay (HRE-bla ME-180 HIF reporter, GeneBLAzer)
Assay type: cell-based, human
Settings: for EC50: 24 hour normoxia
Protocol: The following reagents were used:
• DMEM+GutaMAX: (#10569044, Invitrogen) • Black clear bottom plates: (#3603, Costar) • HRE-bla-ME-180 cell line: (#K1644, Invitrogen) • Gene-Blazer reagent & protocol: (#K1096, Invitrogen) • Plate reader: Biotek Synergy 2 • Chetomin: (C9623, Sigma)
4 hours prior to experiment: HRE-bla ME-180 cells were seeded at a density of 20,000 cells/well in a volume of 180 μl in black clear bottom 96-well plates. 180 μl of assay medium was added to the cell-free control wells. Incubation was conducted at 37° C., 5% CO2 for 4 hours.
Diluted chetomin was used as a positive control. Chetomin was diluted in 100% DMSO to a 10 mM stock concentration. A 1 mM stock of chetomin was prepared in 100% DMSO. Then the 1 mM chetomin stock was serially diluted in 1:4 in 100% DMSO. Finally, 50, 12.5, 3.125, 0.78, 0.2, 0.05 μM stock of chetomin in 5% DMSO/water were prepared by adding 114 μL water+6 μL chetomin in DMSO.
Test peptides were diluted before use. The test peptides were diluted in 100% DMSO to a 10 mM stock concentration. Then each 10 mM peptide stock was diluted in 1:3 in 100% DMSO. Finally, 300, 100, 33.3, 11.1, 3.7, 1.2 μM stock of each peptide in 5% DMSO/water were prepared by adding 129.2 μL water+4 μL peptide in DMSO.
20 μl of peptide, chetomin dilution, or DMSO/water control were added to the appropriate wells of a plate to achieve 200 μL final volumes in 0.3% DMSO/media. The plate was first incubated for 18-20 hours in normoxia incubator (37° C. in humidified 5% CO2, 20% O2 atmosphere). Then the plate was transferred to hypoxia incubator for 24 hours (37° C. in humidified 5% CO2, 1% O2 atmosphere)
6× LiveBLAzer™-FRET B/G (CCF4-AM) Substrate Mixture was prepared according to CellSensor™ HRE-bla ME-180 Cell-based Assay Protocol (Invitrogen) and added into each well. Solution A (CCF4-AM) was reconstituted in DMSO to a working concentration of 1 mM, divided in aliquots, and stored at −20° C. The 6× LiveBLAzer-FRET B/G (CCF4-AM) Substrate mixture was prepared by mixing 6 μl of Solution A, 60 μl of Solution B, and 934 μl Solution C.
The plates were removed from incubator and equilibrated to RT for a few minutes. Then 20 μl of 6× Substrate mixture was added to each well. The plates were then incubated at room temperature for 3 hr in the dark and read at 409 Ex/460Em and 409Ex/530Em using the “GeneBlazer-Tungsten with export” program on the Synergy 2.
The average percentage of maximum inhibition was obtained by comparing the peptide treated cells (30 μM) to DMSO vehicle control treated cells. The results are shown in the columns “ME-180 HIF Reporter EC50 (μM) −24 hr normoxia” and “18 h Avg % max inhibition at top conc (HIF Rptr-24 hrsnormoxia) (μM)” of Table 6.

SMILES | EC50 | 18 h Avg % max inhibition at top conc (HIF Rptr-24 hrs normoxia) (μM)
CCCC[C@H](NC(=O)[C@H](CC(C)C)NC(=O)[C@@H](NC(=O)[C@H](CCC(=O)O)NC(=O)[C@H](CCC(=O)O)NC(=O)[C@H](CC(=O)O)NC(=O)[C@@H](NC(=O)[C@H](Cc1ccccc1)NC(C)=O)[C@@H](C)CC)C(C)C)C(=O)N[C@@]1(C)CCCC=CCCC[C@@](C)(C(=O)N[C@@H](CCCC)C(=O)N[C@@H](C)C(=O)N[C@@H](CC(C)C)C(=O)N[C@@H](CC(=O)O)C(=O)N[C@@H](CCCNC(=N)N)C(=O)N[C@@H](CO)C(N)=O)NC(=O)[C@H]([C@@H](C)CC)NC(=O)[C@H](C(C)C)NC(=O)[C@H](CC(C)C)NC1=O [SP-59] (Ac-FIDEEVL[Nle][S5]LVI[S5][Nle]ALDRS-NH2; staple 9-13) | 15 to 30 µM | +++ (≤25 but <50: +++)
CCCC[C@H](NC(=O)[C@H](CC(C)C)NC(=O)[C@H](CO)NC(=O)[C@H](CCC(=O)O)NC(=O)[C@H](CCC(=O)O)NC(=O)[C@H](CC(=O)O)NC(=O)[C@@H](NC(=O)[C@H](Cc1ccccc1)NC(C)=O)[C@@H](C)CC)C(=O)N[C@@]1(C)CCCC=CCCC[C@@](C)(C(=O)N[C@@H](CCCC)C(=O)N[C@@H](C)C(=O)N[C@@H](CC(C)C)C(=O)N[C@@H](CC(=O)O)C(=O)N[C@@H](CCCNC(=N)N)C(=O)N[C@H](C(N)=O)[C@@H](C)CC)NC(=O)[C@H]([C@@H](C)CC)NC(=O)[C@H](C(C)C)NC(=O)[C@H](CC(C)C)NC1=O [SP-48] (Ac-FIDEESL[Nle][S5]LVI[S5][Nle]ALDRI-NH2; staple 9-13) | 15 to 30 µM | +++ (≤25 but <50: +++)
CCCC[C@H](NC(=O)[C@H](CC(C)C)NC(=O)[C@@H](NC(=O)[C@H](CCC(=O)O)NC(=O)[C@H](CCC(=O)O)NC(=O)[C@H](CN)NC(=O)[C@@H](NC(=O)[C@H](Cc1ccccc1)NC(C)=O)[C@@H](C)CC)C(C)C)C(=O)N[C@@]1(C)CCCC=CCCC[C@@](C)(C(=O)N[C@@H](CCCC)C(=O)N[C@@H](C)C(=O)N[C@@H](CC(C)C)C(=O)N[C@@H](CC(=O)O)C(=O)N[C@@H](CCCNC(=N)N)C(=O)N[C@H](C(N)=O)[C@@H](C)CC)NC(=O)[C@H]([C@@H](C)CC)NC(=O)[C@H](C(C)C)NC(=O)[C@H](CC(C)C)NC1=O [SP-62] (Ac-FI[Dap]EEVL[Nle][S5]LVI[S5][Nle]ALDRI-NH2; staple 9-13) | > 30 µM | ++ (≤10 but <25: ++)

Now from value to compound, other results behind:

EC50 | SMILES | 18 h Avg % max inhibition at top conc (HIF Rptr-24 hrs normoxia) (μM)
15 to 30 µM | CCCC[C@H](NC(=O)[C@H](CC(C)C)NC(=O)[C@@H](NC(=O)[C@H](CCC(=O)O)NC(=O)[C@H](CCC(=O)O)NC(=O)[C@H](CO)NC(=O)[C@@H](NC(=O)[C@H](Cc1ccccc1)NC(C)=O)[C@@H](C)CC)C(C)C)C(=O)N[C@@]1(C)CCCC=CCCC[C@@](C)(C(=O)N[C@@H](CCCC)C(=O)N[C@@H](C)C(=O)N[C@@H](CC(C)C)C(=O)N[C@@H](CC(=O)O)C(=O)N[C@@H](CCCNC(=N)N)C(=O)N[C@H](C(N)=O)[C@@H](C)CC)NC(=O)[C@H]([C@@H](C)CC)NC(=O)[C@H](C(C)C)NC(=O)[C@H](CC(C)C)NC1=O [SP-46] (Ac-FISEEVL[Nle][S5]LVI[S5][Nle]ALDRI-NH2; staple 9-13) | +++ (≤25 but <50: +++)
≤ 5 µM | CCCC[C@H](NC(=O)[C@H](CC(C)C)NC(=O)[C@@H](NC(=O)[C@H](CCC(=O)O)NC(=O)[C@H](CCC(=O)O)NC(=O)[C@H](CC(=O)O)NC(=O)[C@@H](NC(=O)[C@H](Cc1ccccc1)NC(C)=O)[C@@H](C)CC)C(C)C)C(=O)N[C@@]1(C)CCCC=CCCC[C@@](C)(C(=O)N[C@@H](CO)C(=O)N[C@@H](C)C(=O)N[C@@H](CC(C)C)C(=O)N[C@@H](CC(=O)O)C(=O)N[C@@H](CCCNC(=N)N)C(=O)N[C@H](C(N)=O)[C@@H](C)CC)NC(=O)[C@H]([C@@H](C)CC)NC(=O)[C@H](C(C)C)NC(=O)[C@H](CC(C)C)NC1=O [SP-54] (Ac-FIDEEVL[Nle][S5]LVI[S5]SALDRI-NH2; staple 9-13) | ++++ (≥50: ++++)
